Test results as given in US5061791A, “4-bromo-4'-demethylepipodophyllotoxin derivatives” (Warner-Lambert Company, priority 1989, dated 1991).
pIC50: −log10 of the molar value. Like-named read-outs stand apart in the source and are kept apart here.

Key:
[1] = test system: P388 murine leukemia cell line; assay: In vivo antineoplastic test, P388 leukemia in mice; parameters: species or system murine (male and female CD2Fl mice)
Description: (§1) Compounds of the present invention are tested for antineoplastic activity by the following in vitro L1210 and in vivo P388 leukemia protocols:
In Vivo Antineoplastic Test Protocol
The activities of compounds of the present invention are tested against the P388 murine leukemia cell line in vivo. This protocol tests the effectiveness of a given compounds to inhibit the growth of the transplanted P388 murine leukemia cell line in male and female CD2Fl mice. Each test included a group of six or seven mice. The test is described in detail in Cancer Chemotherapy Reports, Part 3, Volume 3, pp 1-85 (1972).
The tumor cell line is transplanted into the test animals by intraperitoneal injection of ascites fluid containing the cell line. […]
A compound is designated "toxic" if, at a given dose, no animal survives after four days following first injection of the test compound. A ratio of survival time for treated animals (T) animals relative to control (C) animals is calculated for each nontoxic dose. A criterion for efficacy is a ratio of (T/C)×100 equal to or greater than 125.

[2] = background art; cited from earlier work
[3] = test system: tumors, including small-cell carcinoma of the lung, acute leukemia, malignant lymphoma, and testicular cancer; settings: background art; cited from earlier work
[4] = test system: L1210 murine leukemia cell line; assay: In vitro antineoplastic test, L1210 leukemia (MTT, 3 days); format: cell-based; settings: Mus musculus, read-out: L1210 Leukemia In Vitro Mean IC50
Description: as §1
In Vitro Antineoplastic Test Protocol
The activities of compounds of the present invention are tested against the L1210 murine leukemia cell line in vitro.
[…] cells are grown in RPMI 1640 culture medium containing 10% fetal bovine serum and gentamicin (50 micrograms per milliliter). A stock solution of the test compound is prepared in the appropriate solvent and further diluted in culture medium. Sequential twofold dilutions of drug are performed with 50 microliter transfers in 96-well microliter plates followed by the addition of 50 microliters of cell suspension containing 4×10^4 cells per milliliter.
After incubation at 37° C. in a humidified atmosphere of 5% CO2 in air for three days, 10 microliters of MTT [5 milligrams/milliliter 3-(4,5-dimethyl-2-thiazol)-2,5-diphenyltetrazolium bromide]are added to each well and the plates incubated at 37° C. for 3 hours before the addition of 100 microliters of 0.15 N HCl in isopropanol. Absorbance is read within one hour on a Dynatech MR 600 plate reader at 2 test wavelength of 570 nm and a reference wavelength of 630 nm. A microcomputer program converts optical density readings to percent growth and determines IC50 values (the amount of drug required to reduce absorbance to 50% of untreated controls) using nonlinear regression analysis.

[5] = Mus musculus, P388, ip, 120 h, read-out: P388 Leukemia % T/C (survival time treated/control x 100)

COc1cc([C@@H]2c3cc4c(cc3[C@@H](O[C@@H]3O[C@@H]5CO[C@@H](C)O[C@H]5[C@H](O)[C@H]3O)[C@H]3COC(=O)[C@H]23)OCO4)cc(OC)c1O [Etoposide, etoposide, reference compound]
response vs control in vivo at 40 mg/kg ([1]; Mus musculus, P388, read-out: P388 Leukemia % T/C (survival time treated/control x 100)): 295% | 60-days survivors ([1]; P388, 40 mg/kg/inj, once daily on Days 1, 5, and 9): 4/10 | toxicity (in words) [2]: reduced toxicity | antineoplastic activity (in words) [3]: exhibited antineoplastic activity against certain tumors, including small-cell carcinoma of the lung, acute leukemia, malignant lymphoma, and testicular cancer

COc1cc([C@@H]2c3cc4c(cc3[C@@H](SCC(O)CO)[C@H]3COC(=O)[C@H]23)OCO4)cc(OC)c1O (stereo partly drawn) [Example 10]
pIC50 ([4]; 72 h, L1210 cells, 3 days at 37° C., MTT): 6.12 | response vs control in vivo at 12.5 mg/kg [1, 5]: 114%

COc1cc([C@@H]2c3cc4c(cc3[C@@H](OCCN(CCO)CCO)[C@H]3COC(=O)[C@H]23)OCO4)cc(OC)c1O [Example 4]
pIC50 ([4]; L1210, 72 h): 6.47 | response vs control in vivo at 1.5 mg/kg [1, 5]: 160%

COc1cc([C@@H]2c3cc4c(cc3[C@@H](O[C@@H]3O[C@@H]5CO[C@@H](c6cccs6)O[C@H]5[C@H](O)[C@H]3O)[C@H]3COC(=O)[C@H]23)OCO4)cc(OC)c1O [teniposide]
toxicity (in words) [2]: reduced toxicity | antineoplastic activity (in words) [3]: exhibited antineoplastic activity against certain tumors, including small-cell carcinoma of the lung, acute leukemia, malignant lymphoma, and testicular cancer

COc1cc([C@@H]2c3cc4c(cc3[C@@H](OCCN(C)CCO)[C@H]3COC(=O)[C@H]23)OCO4)cc(OC)c1O [Example 2]
pIC50 ([4]; L1210, 72 h): 6.99 | response vs control in vivo at 0.38 mg/kg [1, 5]: 170%

COc1cc([C@@H]2c3cc4c(cc3[C@@H](SCCN3CCOCC3)[C@H]3COC(=O)[C@H]23)OCO4)cc(OC)c1O [Example 9, [5R-(5α,5aβ,8aα,9β)]-5,8,8a,9-tetrahydro-5-(4-hydroxy-3,5-methoxyphenyl)-9-[[2-(4-morpholinyl)ethyl]thio]furo[3',4':6,7]naphtho[2,3-d]1,3-dioxol-6(5aH)-one]
pIC50 ([4]; L1210, 72 h): 5.86 | response vs control in vivo at 50 mg/kg [1, 5]: 127%

COc1cc([C@@H]2c3cc4c(cc3[C@@H](S[C@@H]3O[C@@H]5COC(C)O[C@H]5[C@H](O)[C@H]3O)[C@H]3COC(=O)[C@H]23)OCO4)cc(OC)c1O (stereo partly drawn) [Example 11, (5α,5aα,8aα,9β)-9-[(4,6-O-ethylidene-β-D-glucopyranosyl)thio]-5,8,8a,9-tetrahydro-5-(4-hydroxy-3,5-dimethoxyphenyl)furo[3',4':6,7]naphtho[2,3-d]-1,3-dioxol-6(5aH)-one]
pIC50 ([4]; L1210, 72 h): 6.52 | response vs control in vivo at 50 mg/kg [1, 5]: 182% | 40-day survivors ([1]; P388, 50 mg/kg/inj, intraperitoneal once daily for five days): 3/6 | antitumor activity (in words) ([1]; conclusion from the table (L1210 and P388)): highly active

CCN(CC)CCO[C@@H]1c2cc3c(cc2[C@@H](c2cc(OC)c(O)c(OC)c2)[C@H]2C(=O)OC[C@@H]21)OCO3 [Example 5, [5R-(5α,5aβ,8aα,9β)]-9-[2-(diethylamino)ethoxy]-5,8,8a,9-tetrahydro-5-(4-hydroxy-3,5-dimethoxyphenyl)furo[3',4':6,7]naphtho[2,3-d]-1,3-dioxol-6(5aH)-one]
pIC50 ([4]; L1210, 72 h): 6.70 | response vs control in vivo at 3.1 mg/kg [1, 5]: 140%

CCN(CC)CCOCCO[C@@H]1c2cc3c(cc2[C@@H](c2cc(OC)c(O)c(OC)c2)[C@H]2C(=O)OC[C@@H]21)OCO3 [Example 7, [5R-(5α,5aβ,8aα,9β)]-9-[2-[2-(diethyl-amino)ethoxy]ethoxy]-5,8,8a,9-tetrahydro-5-(4-hydroxy-3,5-dimethoxyphenyl)furo[3',4':6,7]naphtho[2,3-d]-1,3-dioxol-6(5aH)-one]
pIC50 ([4]; L1210, 72 h): 6.60 | response vs control in vivo at 50 mg/kg [1, 5]: 170%

CCN(CC)CCCO[C@@H]1c2cc3c(cc2[C@@H](c2cc(OC)c(O)c(OC)c2)[C@H]2C(=O)OC[C@@H]21)OCO3 [Example 6, [5R-(5α,5aβ,8aα,9β)]-9-3-[(diethylamino)propoxy]-5,8,8a,9-tetrahydro-5-(4-hydroxy-3,5-dimethoxyphenyl)furo[3',4':6,7]naphtho[2,3-d]-1,3-dioxol-6(5aH)-one]
pIC50 ([4]; L1210, 72 h): 6.60 | response vs control in vivo at 2 mg/kg [1, 5]: 137%

COc1cc([C@@H]2c3cc4c(cc3[C@@H](OCCN3CCCC3=O)[C@H]3COC(=O)[C@H]23)OCO4)cc(OC)c1O [Example 8, [5S-(5α,5aβ,8aα,9β)]-1-[2-[[5,5a,6,8,8a,9-hexahydro-9-(4-hydroxy-3,5-dimethoxyphenyl)-8-oxofuro-[3',4':6,7]naphtho[2,3-d]-1,3-dioxol-5-yl]oxy]ethyl]-2-pyrrolidinone]
pIC50 ([4]; L1210, 72 h): 6.30 | response vs control in vivo at 100 mg/kg [1, 5]: 167%

COc1cc([C@@H]2c3cc4c(cc3[C@@H](OCCN3CCOCC3)[C@H]3COC(=O)[C@H]23)OCO4)cc(OC)c1O [Example 3, [5R-(5α,5aβ,8aα,9β)]-5,8,8a,9-tetrahydro-5-(4-hydroxy-3,5-dimethoxyphenyl)-9-[2-(4morpholinyl)ethoxy]furo[3',4':6,7]naphtho[2,3-d]-1,3-dioxol-6(5aH)-one]
pIC50 ([4]; L1210, 72 h): 6.63 | response vs control in vivo at 3.1 mg/kg [1, 5]: 179%

COc1cc([C@@H]2c3cc4c(cc3[C@H](O)[C@H]3COC(=O)[C@H]23)OCO4)cc(OC)c1OC [podophyllotoxin]
toxicity (in words) [2]: extremely toxic | antineoplastic activity (in words) [3]: well documented
